The source of these data is patent US9297017B2, “Methods and compositions for targeted protein degradation” (University of Washington, priority 2010, dated 2016).

Experiment [1] concerns the target T1, COI1/JAZ1 complex (Arabidopsis thaliana, UniProt O04197+Q9LMA8).
T1 construct: Full-length Arabidopsis thaliana COI1 and ASK1 were co-expressed; Full-length JAZ substrate proteins were expressed as 6×His-fusion proteins in Escherichia coli; GST (cleaved yes); 6xHis; made in house; host or cells: Hi5 insect cells (COI1/ASK1); Escherichia coli (JAZ1)
T1 sequence (O04197 1-592): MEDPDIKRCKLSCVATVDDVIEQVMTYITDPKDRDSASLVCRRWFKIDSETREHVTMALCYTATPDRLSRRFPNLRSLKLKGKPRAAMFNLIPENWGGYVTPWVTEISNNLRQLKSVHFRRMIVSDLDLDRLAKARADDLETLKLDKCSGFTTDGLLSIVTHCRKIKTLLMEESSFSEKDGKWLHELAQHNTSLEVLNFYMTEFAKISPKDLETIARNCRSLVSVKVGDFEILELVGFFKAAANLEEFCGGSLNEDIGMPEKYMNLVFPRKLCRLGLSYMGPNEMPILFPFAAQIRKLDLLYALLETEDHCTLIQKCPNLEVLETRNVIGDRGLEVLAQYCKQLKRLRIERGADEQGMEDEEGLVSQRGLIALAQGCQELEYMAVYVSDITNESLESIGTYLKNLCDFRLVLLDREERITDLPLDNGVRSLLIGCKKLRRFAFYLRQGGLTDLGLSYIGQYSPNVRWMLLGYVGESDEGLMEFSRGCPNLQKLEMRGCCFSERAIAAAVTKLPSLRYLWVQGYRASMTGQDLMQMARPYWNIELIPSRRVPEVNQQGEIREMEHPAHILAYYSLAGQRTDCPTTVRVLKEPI
T1 sequence (Q39255 1-160 partner): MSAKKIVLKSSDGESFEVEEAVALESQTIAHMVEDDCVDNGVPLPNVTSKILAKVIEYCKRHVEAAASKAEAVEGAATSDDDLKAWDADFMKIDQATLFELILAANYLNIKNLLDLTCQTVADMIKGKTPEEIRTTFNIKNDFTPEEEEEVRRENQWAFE
T1 sequence (Q9LMA8 1-253): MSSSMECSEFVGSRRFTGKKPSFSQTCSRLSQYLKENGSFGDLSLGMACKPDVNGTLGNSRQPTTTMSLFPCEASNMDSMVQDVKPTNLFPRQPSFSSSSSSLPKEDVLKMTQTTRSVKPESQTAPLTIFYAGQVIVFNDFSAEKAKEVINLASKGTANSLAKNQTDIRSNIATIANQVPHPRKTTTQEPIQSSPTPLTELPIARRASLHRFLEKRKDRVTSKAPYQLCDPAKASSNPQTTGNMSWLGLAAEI
The experiment can be described thus: Saturation radioligand binding of 3H-coronatine to COI1/ASK1 in the presence of JAZ1. The source says: (§1) (^3H)-labeled coronatine was synthesized by Amersham. Full-length Arabidopsis thaliana COI1 and ASK1 were co-expressed as a glutathione S-transferase (GST) fusion protein and an untagged protein, respectively, in Hi5 suspension insect cells. The COI1/ASK1 complex was isolated from the soluble cell lysate by glutathione affinity chromatography. After on-column tag cleavage by tobacco etch virus protease, the complex was further purified by anion exchange and gel filtration chromatography and concentrated by ultrafiltration to 12-18 mg ml^−1. Full-length JAZ substrate proteins were expressed as 6×His-fusion proteins in Escherichia coli and purified on Ni-NTA resin with subsequent dialysis into 20 mM Tris-HCl, pH 8.0, 200 mM NaCl, and 10% glycerol.
(§2) Radioligand binding was assayed on purified proteins, with 2 mg COI1/ASK1 complex and JAZ proteins at a 1:3 molar ratio. […] Nonspecific binding was determined in the presence of […] coronatine. Competition binding experiments were conducted with serial dilutions of JA-Ile in the presence of 100 nM ^3H coronatine with nonspecific binding determined in the presence of […] coronatine. Total binding was determined in the presence of vehicle only. Two-point binding experiments were performed in the presence of 100 nM or 300 nM ^3H-coronatine with nonspecific binding determined in the presence of 300 mM coronatine. […]

Experiment [2] concerns the target T2, COI1/JAZ1 co-receptor (Arabidopsis thaliana, UniProt O04197+Q9LMA8).
T2 construct: Full-length Arabidopsis thaliana COI1 and ASK1 were co-expressed; Full-length JAZ substrate proteins were expressed as 6×His-fusion proteins in Escherichia coli; GST (cleaved yes); 6xHis; made in house; host or cells: Hi5 insect cells (COI1/ASK1); Escherichia coli (JAZ1)
T2 sequence (O04197 1-592): T1 sequence (O04197 1-592)
T2 sequence (Q39255 1-160 partner): T1 sequence (Q39255 1-160 partner)
T2 sequence (Q9LMA8 1-253): T1 sequence (Q9LMA8 1-253)
The experiment can be described thus: Ligand-binding based reconstitution assay (inositol phosphate rescue) with dialyzed COI1/ASK1 and JAZ1. The procedure: Radioligand binding was assayed on purified proteins, with 2 mg COI1/ASK1 complex and JAZ proteins at a 1:3 molar ratio. Reactions were prepared in […] final volume and in a binding buffer containing 20 mM Tris-HCl 200 mM NaCl, and 10% glycerol. Saturation binding experiments were conducted with serial dilutions of 3H-coronatine in binding buffer. Nonspecific binding was determined in the presence of […] coronatine. Competition binding experiments were conducted with serial dilutions of JA-Ile in the presence of 100 nM ^3H coronatine with nonspecific binding determined in the presence of […] coronatine. Total binding was determined in the presence of vehicle only. Two-point binding experiments were performed in the presence of 100 nM or 300 nM ^3H-coronatine with nonspecific binding determined in the presence of […] coronatine. Following incubation with mixing at 4° C., all samples were collected with a cell harvester (Brandel, Gaithersburg, Md.) on polyethyleneimine (Sigma)-treated filters. Samples were incubated in liquid scintillation fluid for >1 hour before counting with a Packard Tri-Carb 2200 CA liquid scintillation analyzer (Packard Instrument Co.). Saturation binding experiments were analyzed by nonlinear regression, competition binding experiments by nonlinear regression with Ki calculation as described previously (Cheng 1973), and concentration-response data by sigmoidal dose-response curve fitting, all using GraphPad Prism version 4.00 for MacOSX.
To assess the functional role of Ins(1,2,4,5,6)P5 in the COI1/JAZ1 co-receptor, a protocol was developed for stripping the co-purified InsP5 from COI1 without denaturing the protein. Briefly, proteins were mixed with 10% glycerol and incubated in 2 M ammonium phosphate, 100 mM Bis-Tris propane, pH 7.0, 200 mM NaCl, and 10% glycerol at 4° C. for >24 hours with a minimum of 3× buffer changes at 100× sample volume. Samples were then transferred to 20 mM Tris-HCl, pH 8.0, 200 mM NaCl, and 10% glycerol at 4° C. for >24 hours with a minimum of three buffer changes at 100× sample volume. Inositol phosphate rescue experiments were conducted according to the radioligand binding assays described above in the presence of 300 nM ^3H-coronatine with nonspecific binding determined in the presence of 300 μM coronatine.
The resulting COI1/ASK1 complex was tested in a ligand-binding based reconstitution assay. […] From this reconstitution result, it was concluded that Ins(1,2,4,5,6)P5 binding is crucial for the jasmonate coreceptor to perceive the hormone with high sensitivity.

Experiment [3] has as its target T3, JAZ6F195A/COI1 (Arabidopsis thaliana, UniProt O04197+Q9C9E3, F195A).
T3 construct: Full-length Arabidopsis thaliana COI1 and ASK1 were co-expressed; Full-length JAZ substrate proteins were expressed as 6×His-fusion proteins in Escherichia coli; GST (cleaved yes); 6xHis; made in house; host or cells: Hi5 insect cells (COI1/ASK1); Escherichia coli (JAZ6 F195A)
T3 sequence (O04197 1-592): T1 sequence (O04197 1-592)
T3 sequence (Q9C9E3 1-269 F195A): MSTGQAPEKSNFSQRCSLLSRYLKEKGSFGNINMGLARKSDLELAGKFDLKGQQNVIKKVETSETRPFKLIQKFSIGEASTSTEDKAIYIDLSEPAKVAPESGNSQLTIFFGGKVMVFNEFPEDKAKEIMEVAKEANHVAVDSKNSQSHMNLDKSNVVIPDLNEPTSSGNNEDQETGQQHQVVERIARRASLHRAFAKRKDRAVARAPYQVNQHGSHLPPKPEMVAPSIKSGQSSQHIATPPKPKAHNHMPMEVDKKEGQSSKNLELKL
T3 sequence (Q39255 1-160 partner): T1 sequence (Q39255 1-160 partner)
The experiment can be described thus: Binding of 3H-coronatine (300 nM) to JAZ6F195A/COI1. Conditions: 300 nM 3H-coronatine.
Description: as §1, §2

Values joined by “and” are separate entries in the source; they are usually repeats but may differ in a detail not shown here. Equal values may be shown once. Read-outs that look alike come from different tables or passages of the source.

On to `CC[C@H]1C=C(C(=O)N[C@@]2(C(=O)O)C[C@@H]2CC)[C@H]2CCC(=O)[C@H]2C1` [coronatine], for which the “Binding affinity for COI1/JAZ1 complex” value in experiment [1] is given as “high affinity”. For the same compound, the Kd was 68 nM and 48 nM in experiment [1] (COI1/JAZ1 complex, listed as 3H-coronatine); 30 nM in experiment [2] (1 μM Ins(1,2,4,5,6)P5, read-out: Kd, saturation binding of 3H-coronatine to dialyzed COI1 in the presence of InsP5); 37 nM in experiment [2] (1 μM InsP6, read-out: Kd, saturation binding of 3H-coronatine to dialyzed COI1 in the presence of InsP6). In addition, in experiment [3], the “High affinity interaction with COI1/JAZ6 after mutation of the conserved phenylalanine to alanine” value is “abolish the high affinity interaction”.
